According to US20080045547A1, “Salts And Co-Crystals of Pyrazolopyrimidine Compounds, Compositions Thereof And Methods For Their Production And Use” (priority 2006, published 2008):
“And” between values parts separate entries of the source, which are not always exact repeats. Equal values may be shown once. “Also recorded” adds a separate entry of the source. Where a name gives a salt, the structure may show the parent alone.

Key:
[1] = Pharmacokinetics of indiplon after oral administration of free base or HBr co-crystal suspension; type: in vivo, male beagle dogs; settings: male dogs; for AUC(0-t) / Cmax / Tmax: single oral dose 5 mg free base/kg, 0.5% methylcellulose suspension
Description: The purpose of this study was to determine the pharmacokinetics of indiplon following oral administration of the free base and the HBr co-crystal in a suspension to male beagle dogs.
The test compounds used in the study were the free base and […] of indiplon. The compounds were stored at approximately 2-8° C.
Five male purebred beagles were transferred to the study from a stock colony. Each animal was identified with an individually numbered ear tattoo. The animals were acclimated for 5 days. At the time of dose administration, animals were young adult/adult age. During acclimation and the test period, animals were individually housed in wire-mesh enclosures with coated rod-bottom floors. Animals were not comingled for at least 24 hours after each dose administration to allow monitoring of any test compound-related effects. Animals had access to non-certified Canine Diet #5L03 (PMI Feeds, Inc.) ad libitum, except as specified for dose administration.
(§1) The test compounds were prepared in 0.5% methylcellulose. The target concentrations of the free base and HBr salt were 1.0 and 1.34 mg/mL (equivalent to 1 mg of the free base), respectively. The liquid suspensions were administered via oral gavage. Prior to removing the gavage tube, the tube was flushed with approximately 5 mL of water.
(§2) Blood (approximately 2 mL) was collected from a jugular vein via syringe and needle and transferred into tubes containing K2EDTA anticoagulant predose and at 0.5, 1, 2, 3, 4, 6, 8, 12, and 24 hours postdose. Blood was maintained on wet ice, in chilled Kryoracks, or at approximately 5° C. prior to centrifugation to obtain plasma. Centrifugation began within 1 hour of collection. Plasma was placed on dry ice prior to storage at approximately −70° C. Plasma samples, remaining test compounds, and remaining dose formulations were shipped on dry ice to the analysis site and stored at approximately −70° C. before and after analysis. Samples were analyzed using an LC/MS/MS method. Plasma concentration-time data for each dog and formulation were analyzed using a noncompartmental model assumption with WinNonlin, version 4.1 (Pharsight Corporation, Mountain View, Calif.). All calculations were based on the nominal times as actual sample collection times departed minimally from the schedule times.

[2] = Equilibrium aqueous solubility from solid; type: physicochemical; settings: H20, room temperature overnight; for solubility: water, thermodynamic from solid
Description: Samples of the ocinaplon salts shown above were evaluated for equilibrium aqueous solubility from solid. Duplicate samples of ocinaplon were accurately weighed and diluted to 1 ml with water to 6.83 mg/ml and 6.43 mg/ml. Duplicate samples of Ocinaplon di HCl salt were accurately weighed and diluted to 1 ml with water to 5.5 mg/ml and 6.0 mg/ml. Ocinaplon di HBr salt was accurately weighed and diluted to 1 ml with water to 6.1 mg/ml and 5.8 mg/ml. Ocinaplon disulfate salt was accurately weighed and diluted to 1 ml with water to 7.5 mg/ml and 6.5 mg/ml. Any change in pH of the water following sample addition was recorded. After equilibration at room temperature overnight the solutions were filtered and solute concentration determined by fast gradient HPLC with UV/VIS/MS detection with reference to 5, 10, 50, 100 and 250 μM analytical standards. Prior to sample filtration, filters were primed with 600 μl of sample to resolve potential adsorption problems. Both sample replicates were collected through the primed filter. Duplicate determinations were made in all cases.

[3] = Pharmacokinetics of different salt forms of ocinaplon after a single oral dose; type: in vivo; settings: male beagle dogs; for Tmax / half-life / AUC(0-inf) / AUC(0-t) / Cmax: dog, plasma; for Cmax of ocinaplon relative to an equivalent amount of the free base / AUC of ocinaplon relative to an equivalent amount of the free base / variability in plasma levels of ocinaplon compared to the free base / variability in the AUC (CV %) compared to the free base: oral 30 mg free base/kg; for AUC(0-inf) / AUC(0-t) / Cmax: male, beagle, po
Description: as §1, §2
The pharmacokinetic parameters of different pyrazolopyrimidine acid salts vary in an apparently salt and compound dependent fashion. This is illustrated by a comparison of the pharmacokinetic properties of different acid salts of the pyrazolopyrimidine, ocinaplon. This study was performed in a manner similar to the study described in Example 9 hereinabove. The concentrations of the HCl, HBr and disulfate salts of ocinaplon were 3.72 mg/mL, 4.61 mg/mL and 4.95 mg/mL, respectively. All concentrations were calculated to be 3.0 mg free base/mL; the dose volume was […]. […] […] These findings exemplify and underscore the differences in pharmacokinetic profiles among these three exemplary salts of ocinaplon.

[4] = dog CTZBCG, listed as Free Base Suspension
[5] = dog CUPBEG, listed as Free Base Suspension
[6] = dog CUVBAT, listed as Free Base Suspension
[7] = 30 mg/kg, single oral dose 30 mg Base/kg, 0.5% methylcellulose suspension, mean (CV %), N = 5
[8] = single oral dose 50 mg/kg, 0.5% MC, mean (CV %)
[9] = 30 mg/kg, apparently scaled from 50 mg/kg, 0.5% MC
[10] = 50 mg/kg, single oral dose 50 mg/kg, 0.5% MC, mean (CV %)
[11] = Mean, N = 5, listed as HBr Salt Suspension
[12] = dog CUPBEG, listed as HBr Salt Suspension
[13] = dog CUVBAT, listed as HBr Salt Suspension
[14] = dog CVRCVX, listed as HBr Salt Suspension
[15] = dog CVSCCL, listed as HBr Salt Suspension

CC(=O)N(C)c1cccc(-c2ccnc3c(C(=O)c4cccs4)cnn23)c1 [Indiplon free base, N-methyl-N-{3-[3-(thiophene-2-carbonyl)-pyrazolo[1,5-a]pyrimidin-7-yl]-phenyl}acetamide, reference compound]
AUC(0-t) ([1]; Mean, N = 5, listed as Free Base Suspension): 250 ng·h/mL | AUC(0-t) [1, 4]: 408 ng·h/mL | Cmax [1, 4]: 266 ng/mL | AUC(0-t) [1, 5]: 160 ng·h/mL | Cmax [1, 5]: 106 ng/mL | Tmax [1, 5]: 60 min | AUC(0-t) [1, 6]: 125 ng·h/mL | Cmax [1, 6]: 101 ng/mL | AUC(0-t) ([1]; dog CVSCCL, listed as Free Base Suspension): 277 ng·h/mL | Cmax ([1]; male, beagle, dog, plasma, po, 5 mg/kg, Mean, N = 5, read-out: Cmax): 185 ng/mL | Tmax ([1]; male, beagle, dog, plasma, po, 5 mg/kg, Mean, N = 5, read-out: Tmax): 36 min | Tmax ([1]; male, beagle, dog, plasma, po, 5 mg/kg, dog CUVBAT, read-out: Tmax): 30 min | AUC(0-t) ([1]; male, beagle, dog, plasma, po, 5 mg/kg, dog CVRCVX, read-out: AUC0-t): 279 ng·h/mL | Cmax ([1]; male, beagle, dog, plasma, po, 5 mg/kg, dog CVRCVX, read-out: Cmax): 212 ng/mL | Tmax ([1]; male, beagle, dog, plasma, po, 5 mg/kg, dog CVRCVX, read-out: Tmax): 30 min | Cmax ([1]; male, beagle, dog, plasma, po, 5 mg/kg, dog CVSCCL, read-out: Cmax): 240 ng/mL

O=C(c1ccccn1)c1cnn2c(-c3ccncc3)ccnc12 [Ocinaplon disulfate salt]
Equilibrium Aqueous Solubility from Solid [2]: 10.6 mM and 5.3 mg/ml | Tmax [3, 7]: 48 min | half-life [3, 7]: 57 min | Cmax of ocinaplon relative to an equivalent amount of the free base [3]: more than two-fold | AUC(0-inf) [3, 7]: 46400 ng·h/mL | AUC(0-t) [3, 7]: 46300 ng·h/mL | Cmax [3, 7]: 14800 ng/mL

O=C(c1ccccn1)c1cnn2c(-c3ccncc3)ccnc12 [Ocinaplon Free base, pyridin-2-yl(7-(pyridin-4-yl)pyrazolo[1,5-a]pyrimidin-3-yl)methanone, reference compound]
Equilibrium Aqueous Solubility from Solid [2]: 0.4 mM and 0.1 mg/ml | Tmax [3, 8]: 108 min | half-life [3, 8]: 96.6 min | AUC(0-inf) [3, 9]: 37900 ng·h/mL | AUC(0-t) [3, 9]: 37600 ng·h/mL | Cmax [3, 9]: 6250 ng/mL | AUC(0-inf) [3, 10]: 63200 ng·h/mL | AUC(0-t) [3, 10]: 62500 ng·h/mL | Cmax [3, 10]: 10400 ng/mL

Cl.Cl.O=C(c1ccccn1)c1cnn2c(-c3ccncc3)ccnc12 [Ocinaplon di HCl salt]
solubility [2]: 12600 µM and 4700 µg/mL | Tmax [3, 7]: 66 min | half-life [3, 7]: 63 min | AUC of ocinaplon relative to an equivalent amount of the free base [3]: almost twice as high | Cmax of ocinaplon relative to an equivalent amount of the free base [3]: more than two-fold | variability in plasma levels of ocinaplon compared to the free base [3]: lower variability | variability in the AUC (CV %) compared to the free base [3]: much less variability | AUC(0-inf) [3, 7]: 57300 ng·h/mL | AUC(0-t) [3, 7]: 57100 ng·h/mL | Cmax [3, 7]: 15000 ng/mL

Br.Br.O=C(c1ccccn1)c1cnn2c(-c3ccncc3)ccnc12 [Ocinaplon di HBr]
solubility [2]: 11500 µM and 5300 µg/mL | Tmax [3, 7]: 54 min | half-life [3, 7]: 49.8 min | AUC of ocinaplon relative to an equivalent amount of the free base [3]: did not differ | Cmax of ocinaplon relative to an equivalent amount of the free base [3]: more than two-fold; also recorded: approximately twice | variability in plasma levels of ocinaplon compared to the free base [3]: lower variability | variability in the AUC (CV %) compared to the free base [3]: dramatically less | AUC(0-t) ([3]; 30 mg Base/kg, single oral dose 30 mg Base/kg, 0.5% methylcellulose suspension, mean (CV %), N = 5): 38000 ng·h/mL | AUC(0-inf) [3, 7]: 38100 ng·h/mL | Cmax [3, 7]: 13600 ng/mL

CC(=O)N(C)c1cccc(-c2ccnc3c(C(=O)c4cccs4)cnn23)c1 [indiplon HBr, N-methyl-N-{3-[3-(thiophene-2-carbonyl)-pyrazolo[1,5-a]pyrimidin-7-yl]-phenyl}acetamide HBr cocrystal]
Tmax compared to the free base ([1]; oral 5 mg free base/kg): not remarkably different | increase in the AUC versus free base ([1]; oral 5 mg free base/kg): 226.8% | increase in the maximum plasma concentrations achieved (Cmax) versus free base ([1]; oral 5 mg free base/kg): 69.7% | test animals with pharmaceutical profile superior to the corresponding free base ([1]; oral 5 mg free base/kg, cross-over): 5 out of 5 | AUC(0-t) [1, 11]: 567 ng·h/mL | Cmax [1, 11]: 314 ng/mL | Tmax [1, 11]: 48 min | AUC(0-t) ([1]; dog CTZBCG, listed as HBr Salt Suspension): 1130 ng·h/mL | AUC(0-t) [1, 12]: 429 ng·h/mL | Cmax [1, 12]: 253 ng/mL | AUC(0-t) [1, 13]: 291 ng·h/mL | Cmax [1, 13]: 309 ng/mL | AUC(0-t) [1, 14]: 258 ng·h/mL | Cmax [1, 14]: 227 ng/mL | AUC(0-t) [1, 15]: 725 ng·h/mL | Cmax [1, 15]: 270 ng/mL | Tmax [1, 15]: 120 min | Cmax ([1]; male, beagle, dog, plasma, po, 5 mg/kg, dog CTZBCG, read-out: Cmax): 513 ng/mL | Tmax ([1]; male, beagle, dog, plasma, po, 5 mg/kg, dog CTZBCG, read-out: Tmax): 30 min | Tmax ([1]; male, beagle, dog, plasma, po, 5 mg/kg, dog CUPBEG, read-out: Tmax): 30 min
